Assay [1] has as its target Melanin-concentrating hormone receptor 1 (Homo sapiens, UniProt Q99705). Put plainly: Fluorescence-based counterscreen for antagonists of the G-protein coupled receptor 7 (GPR7): cell-based high throughput dose response assay to identify antagonists of the melanin-concentrating hormone receptor 1 (MCHR1). The class given is functional.
Assay [2] concerns the target T1, Neuropeptides B/W receptor type 1 (Homo sapiens, UniProt P48145).
T1 sequence (P48145 whole entry): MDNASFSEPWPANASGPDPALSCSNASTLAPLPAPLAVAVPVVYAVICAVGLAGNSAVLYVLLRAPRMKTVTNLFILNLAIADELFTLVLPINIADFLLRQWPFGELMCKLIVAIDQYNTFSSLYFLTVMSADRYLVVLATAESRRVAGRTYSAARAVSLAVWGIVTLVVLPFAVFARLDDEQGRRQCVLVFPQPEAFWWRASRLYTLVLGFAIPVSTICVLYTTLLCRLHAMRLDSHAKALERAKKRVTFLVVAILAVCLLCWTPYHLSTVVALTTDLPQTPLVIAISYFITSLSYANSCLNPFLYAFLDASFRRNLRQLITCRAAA
Kind of assay: Fluorescence-based dose response cell-based high throughput screening assay to identify antagonists of the G-protein coupled receptor 7 (GPR7). [Related pubchem assays: 1952 (Screening assay (GPR7 antagonists).), 1880 (Summary AID.)]. In kind it is functional.

For assay [3], the system named is Streptococcus. Kind of assay: Luminescence Microorganism-Based Dose Response Follow up to Identify Compounds Cytotoxic to Streptococcus. [Related pubchem assays: 1677 (Project Summary), 1915, 1914, 1902 (Retest at Dose), 1900 (Counter Screen), 1662 (Primary HTS)]. In kind it is functional, organism-based.
For assay [4], the target named is T2, High affinity choline transporter 1 (Homo sapiens, UniProt Q9GZV3).
T2 sequence (Q9GZV3 whole entry): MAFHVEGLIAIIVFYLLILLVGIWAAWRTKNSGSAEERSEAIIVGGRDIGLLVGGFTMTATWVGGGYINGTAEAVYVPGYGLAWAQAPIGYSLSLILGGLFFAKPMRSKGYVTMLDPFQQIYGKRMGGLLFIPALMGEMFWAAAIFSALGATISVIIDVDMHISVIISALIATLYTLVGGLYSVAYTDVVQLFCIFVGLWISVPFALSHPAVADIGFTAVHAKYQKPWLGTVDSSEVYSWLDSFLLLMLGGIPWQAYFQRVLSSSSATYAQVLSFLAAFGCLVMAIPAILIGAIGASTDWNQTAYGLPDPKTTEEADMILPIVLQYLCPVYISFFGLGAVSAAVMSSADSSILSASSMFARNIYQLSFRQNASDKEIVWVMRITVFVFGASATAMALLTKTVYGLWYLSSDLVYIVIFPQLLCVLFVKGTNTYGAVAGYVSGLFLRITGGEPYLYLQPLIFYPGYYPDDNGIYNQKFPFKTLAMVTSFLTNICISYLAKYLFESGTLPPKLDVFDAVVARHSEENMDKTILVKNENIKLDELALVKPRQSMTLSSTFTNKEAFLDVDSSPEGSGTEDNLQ
Put plainly: CHT inhibitors, dose response, cell-based, 10-point CRC, membrane potential dye (AID 588401).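 Note: membrane potential dye fluorescence of choline-evoked depolarization via CHT.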 In kind it is functional.

The next assay addresses T3, Insulin-degrading enzyme (Homo sapiens, UniProt P14735).
T3 sequence (P14735 whole entry): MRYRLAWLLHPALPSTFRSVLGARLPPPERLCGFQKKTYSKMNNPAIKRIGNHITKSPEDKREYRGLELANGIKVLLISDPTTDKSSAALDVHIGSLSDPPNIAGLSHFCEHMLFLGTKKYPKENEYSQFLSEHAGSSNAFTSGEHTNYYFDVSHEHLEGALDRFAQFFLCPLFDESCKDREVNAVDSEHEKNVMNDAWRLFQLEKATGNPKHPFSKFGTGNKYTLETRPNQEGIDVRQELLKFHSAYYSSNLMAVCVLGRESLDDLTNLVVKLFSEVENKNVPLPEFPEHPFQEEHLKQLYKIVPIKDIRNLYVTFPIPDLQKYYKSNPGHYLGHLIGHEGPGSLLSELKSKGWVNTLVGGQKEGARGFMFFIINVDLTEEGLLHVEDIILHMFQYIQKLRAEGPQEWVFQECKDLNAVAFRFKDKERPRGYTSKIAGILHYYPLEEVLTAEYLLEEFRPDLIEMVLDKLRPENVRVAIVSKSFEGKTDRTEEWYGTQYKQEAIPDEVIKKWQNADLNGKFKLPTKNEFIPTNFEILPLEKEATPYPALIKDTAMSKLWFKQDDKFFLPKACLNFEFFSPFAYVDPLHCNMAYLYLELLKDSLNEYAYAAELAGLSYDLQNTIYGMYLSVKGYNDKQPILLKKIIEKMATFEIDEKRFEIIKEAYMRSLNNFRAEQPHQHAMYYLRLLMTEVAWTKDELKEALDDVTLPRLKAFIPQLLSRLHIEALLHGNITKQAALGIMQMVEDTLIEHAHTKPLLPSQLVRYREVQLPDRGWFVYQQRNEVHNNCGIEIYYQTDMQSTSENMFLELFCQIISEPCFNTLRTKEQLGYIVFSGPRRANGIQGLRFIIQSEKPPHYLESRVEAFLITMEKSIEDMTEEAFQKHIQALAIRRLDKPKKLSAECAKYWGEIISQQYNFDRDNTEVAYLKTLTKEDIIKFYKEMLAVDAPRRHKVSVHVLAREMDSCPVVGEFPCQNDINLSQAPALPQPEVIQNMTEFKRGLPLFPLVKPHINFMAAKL
Kind of assay: Dose Response: Fluorescence polarization-based cell-based high throughput dose response assay for inhibitors of insulin-degrading enzyme (IDE). [Related pubchem assays: 434962 (Primary screen (IDE inhibitors in singlicate)), 449730 (Counterscreen (Cytotoxicity in triplicate)), 435028 (Confirmation (IDE inhibitors in triplicate)), 434984 (Summary …. The class given is functional. On the technique in general: In fluorescence polarisation assays a small probe gives low polarisation when free and higher when bound to something large.

Assay [5] deals with T2, High affinity choline transporter 1. Kind of assay: CHT inhibitors, dose response, cell-based, 5-point CRC, membrane potential dye (AID 504840). The class given is functional.
A short description of assay [6]: Counterscreen for IDE inhibitors: Luminescence-based cell-based high throughput dose response assay to identify compounds that are cytotoxic to HEK cells. [Related pubchem assays: 434962 (Primary screen (IDE inhibitors in singlicate)), 449730 (Counterscreen (Cytotoxicity in triplicate)), 435028 (Confirmation (IDE inhibitors in triplicate)) …. The class given is functional. The note with it: HEK293. On the technique in general: A counterscreen serves to expose hits that act by an unwanted route or on another target.

The nature of assay [7]: Shn3 3'UTR reporter inhibitors, dose response, cell-based, Clone20 osteoblasts, firefly luciferase, cherry-picked (AID 624132).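 Note: firefly luciferase luminescence from reporter carrying the Shn3 3'UTR in osteoblasts.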 The class given is functional.
Assay [8] relates to Streptococcus sp. 'group A'. Kind of assay: growth inhibition of control SK(-) GAS strain, dose response, counter-screen for streptokinase expression inhibitor project, luminescence, kanamycin, BacTiterGlo, confirmation (AID 1900). In kind it is functional, organism-based.
In another assay the target is T4, Streptokinase A (Streptococcus pyogenes serotype M1, UniProt P10520).
T4 sequence (P10520 whole entry): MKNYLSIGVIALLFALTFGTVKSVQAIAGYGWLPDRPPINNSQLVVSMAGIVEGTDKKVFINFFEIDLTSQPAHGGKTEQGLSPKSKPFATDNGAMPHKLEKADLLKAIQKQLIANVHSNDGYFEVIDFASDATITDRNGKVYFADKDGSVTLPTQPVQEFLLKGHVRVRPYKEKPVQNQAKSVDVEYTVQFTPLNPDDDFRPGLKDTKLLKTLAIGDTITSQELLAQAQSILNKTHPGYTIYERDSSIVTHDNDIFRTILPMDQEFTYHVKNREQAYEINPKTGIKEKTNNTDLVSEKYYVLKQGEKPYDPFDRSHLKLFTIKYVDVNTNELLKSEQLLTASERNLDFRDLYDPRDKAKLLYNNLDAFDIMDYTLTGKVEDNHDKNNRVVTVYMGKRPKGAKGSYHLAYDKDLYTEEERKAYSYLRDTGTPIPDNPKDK
Put plainly: S. pyogenes streptokinase expression inhibitors, potency, dose response, plasminogen activation absorbance, OD405 (AID 1914).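 Note: secreted streptokinase activity via plasminogen activation per viability signal from cell pellet.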 The class given is functional, Streptococcus pyogenes M1 GAS.

The nature of assay [9]: Luminescence Cell-Based Dose Retest to Confirm Inhibitors of Cancer Stem Cells. [Related pubchem assays (depositor defined):AID2717, AID2721]. The class given is functional. The note with it: Homo sapiens.
A further assay concerns INS1. Kind of assay: beta cell apoptosis inhibitors, cytokine rescue, dose response, luminescence, retest (AID 449756).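 Note: cell death triggered by IL-1 beta plus TNF-alpha plus IFN-gamma mixture; protective hits raise ATP signal compared with cytokine alone wells.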 In kind it is functional, cell-based. The note with it: Rattus norvegicus.
Assay [10] in a line: control 3'UTR Renilla luciferase suppression, dose response, counter-screen for Shn3 inhibitor project, cell-based, Clone20-Shn3RL, cherry-picked (AID 624133). In kind it is functional.
Assay [11] has as its system Streptococcus. Kind of assay: Group A Streptococcus viability loss, dose response, counter-screen for streptokinase expression inhibitor project, luminescence, BacTiterGlo (AID 1915).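 Note: potency for reduction of bacterial viability or growth.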 The class given is functional, organism-based. To be noted: read-out: EC50.
Assay [12] concerns the target T5, Corticotropin-releasing factor receptor 2/Corticotropin-releasing factor-binding protein (Homo sapiens, UniProt P24387+Q13324).
T5 sequence (Q13324 whole entry): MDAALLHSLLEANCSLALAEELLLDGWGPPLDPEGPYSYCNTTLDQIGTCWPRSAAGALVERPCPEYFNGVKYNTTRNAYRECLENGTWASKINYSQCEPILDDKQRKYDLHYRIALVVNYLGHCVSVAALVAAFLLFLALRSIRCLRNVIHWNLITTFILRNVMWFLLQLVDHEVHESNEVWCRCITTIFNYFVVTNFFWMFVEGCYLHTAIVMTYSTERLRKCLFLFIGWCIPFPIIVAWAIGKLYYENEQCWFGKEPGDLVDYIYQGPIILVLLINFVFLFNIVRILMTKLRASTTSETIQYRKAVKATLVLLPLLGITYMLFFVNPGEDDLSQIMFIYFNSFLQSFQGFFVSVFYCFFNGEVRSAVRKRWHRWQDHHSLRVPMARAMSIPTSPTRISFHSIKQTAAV
T5 sequence (P24387 whole entry): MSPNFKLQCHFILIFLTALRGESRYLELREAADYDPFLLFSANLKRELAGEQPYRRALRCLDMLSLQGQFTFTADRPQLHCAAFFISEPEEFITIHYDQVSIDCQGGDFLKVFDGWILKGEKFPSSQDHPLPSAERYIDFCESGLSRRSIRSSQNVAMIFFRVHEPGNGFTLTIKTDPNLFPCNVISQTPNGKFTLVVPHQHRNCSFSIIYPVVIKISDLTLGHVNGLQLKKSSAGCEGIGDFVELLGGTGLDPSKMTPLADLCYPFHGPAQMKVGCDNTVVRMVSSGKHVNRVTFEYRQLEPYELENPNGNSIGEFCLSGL
Put plainly: activators of CRF receptor 2 with binding protein – uHTS hits, confirmation (AID 602473). The class given is functional. To be noted: read-out: EC50_Mean.

Structures are written as SMILES. Activity calls are given as the source filed them.

Sequence of Melanin-concentrating hormone receptor 1 (Q99705 whole entry): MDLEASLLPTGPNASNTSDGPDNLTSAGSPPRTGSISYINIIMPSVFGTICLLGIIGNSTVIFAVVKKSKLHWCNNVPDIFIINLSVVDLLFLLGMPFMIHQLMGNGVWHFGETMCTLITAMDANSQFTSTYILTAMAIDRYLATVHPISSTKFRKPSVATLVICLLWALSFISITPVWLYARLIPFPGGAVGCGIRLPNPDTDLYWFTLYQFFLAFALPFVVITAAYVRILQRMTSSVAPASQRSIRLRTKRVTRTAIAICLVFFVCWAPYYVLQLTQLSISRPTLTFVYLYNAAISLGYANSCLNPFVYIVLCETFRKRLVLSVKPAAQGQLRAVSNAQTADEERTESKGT

Usually IC50 stands for the concentration needed to halve the response being measured. `N=c1c(C(=O)NCCc2ccccc2)cc2c(=O)n3ccccc3nc2n1CCCN1CCOCC1`: the IC50 in [1] and in [2] was > 43.8 µM (not active) each time.

With `N#Cc1ccc(C(=O)n2c3ccccc3c3ccccc32)cc1`, in the assay with Streptococcus [3], the EC50 was > 500 µM (not active).

As for `CC(C)(C)NC(=O)NC(=O)CN1CCN(c2cccc(Cl)c2)CC1`, the IC50 was 3.16 µM (active) in [4], > 55.9 µM (not active) on Insulin-degrading enzyme, 8.64 µM (active) in assay [5] and 19.3 µM (not active) in [6].

What is called AC50 is the midpoint of the concentration-response curve, whichever way the signal moves. Take `COC(=O)c1ccccc1NC(=O)c1nc(S(=O)(=O)Cc2ccccc2)ncc1Cl`: the AC50 is 0.428 µM (active) in assay [7], 1.84 µM (active) in assay [9], 6.88 µM (active) in the assay on INS1 and 8.03 µM (active) in assay [10]. The EC50 in the assay with Streptococcus [3] is > 56 µM (not active); in assay [8], > 50 µM (not active); on Streptokinase A, 3.08 µM (active); in the assay with Streptococcus [11] it was > 150 µM (not active).

In the case of `O=P(Cc1cc(Br)cc(Br)c1OCCO)(c1ccccc1)c1ccccc1`, the IC50 was 9.96 µM (active) in [1] and > 43.8 µM (not active) in assay [2].

Regarding `Cc1cccc(/N=C/c2[nH]c3ccc(Br)c(Cl)c3c2O)c1`, the IC50 on Insulin-degrading enzyme is on record as 38.2 µM (not active); in assay [6], 13.1 µM (not active). The EC50 in assay [12] is 0.46 µM (active).
